Measurements as given in US12091405B2, “Substituted pyrazole compounds as indoleamine 2,3-dioxygenase inhibitors” (Merck Sharp & Dohme LLC, priority 2018, dated 2024).

Target: IDO1 (Homo sapiens, UniProt P14902)
Experiment: IDO1 Cellular Assay in HeLa Cells Stimulated with IFNγ
Assay type: cell-based
Conditions: IFNγ 100 ng/mL, 300 uM L-tryptophan, about 48 hours, fluorescence readout, read-out: IDO1 HELA Cell Assay, IC50
Protocol: Biological Assays IDO1 Cellular Assay in HeLa Cells Stimulated with IFNγ
HeLa cells were cultured in complete HeLa culture medium (90% EMEM, 10% heat-inactivated fetal bovine serum) and expanded to about 1×10^9 cells. The cells were then collected and frozen down at 1×10^7 cells/vial in 1 mL frozen medium (90% complete HeLa culture medium, 10% DMSO).
Compounds to be tested were serially diluted in ten 3-fold steps in DMSO starting from 10 mM DMSO stocks in Echo low volume plate(s). Compound dilutions or DMSO alone were then dispensed from the dilution plate(s) into Greiner black 384-well assay plate(s) (catalog #781086, 50 nL/well) using an Echo 550 acoustic liquid handler (Labcyte).
Frozen HeLa cells were thawed and transferred into HeLa assay medium (99% complete HeLa culture medium, 1% Pen/Strep) with 20 mL medium/vial of cells. The cells were spun down at 250 g in a table top centrifuge for 5 min and suspended in same volume of HeLa assay medium. The cells were then counted and adjusted to a density of 2×10^5 cells/mL in HeLa assay medium. Sterile L-tryptophan were added to the cells with final concentration of 300 uM L-tryptophan. A small aliquot (2 mL/plate) of HeLa cells were set aside and were not treated with IFNγ, to serve as the Max-E control.
HeLa cells with and without IFNγ were dispensed to the respective wells of 384-well assay plates containing the compounds. The plates were incubated for about 48 hours at a 37° C., 5% CO2 incubator. Afterwards, 12 μL of 0.5 M methyl isonipecotate in dimethyl sulfoxide were added into each well and the plates were sealed and incubated at 37° C. without CO2 overnight. The plates were centrifuged for 1 min at 200×g. The resulting fluorescence was measured in a Spectramax plate reader (Molecular Devices) with a 400 nm excitation filter and a 510 nm emission filter.
The fluorescence intensity of each well was corrected for the background observed in wells with non-IFNγ-treated cells and was expressed as a fraction of the intensity observed in wells of IFNγ-treated cells and DMSO only. Potencies were calculated by linear least squares fit to the four parameter logistic IC50 equation.
Compounds disclosed herein generally have IC50 of about 0.1 nM to about 20,000 nM, or more specifically, about 1 nM to about 10,000 nM, or more specifically, about 5 nM to about 5,000 nM, or more specifically, about 10 nM to about 1,000 nM, or still more specifically, about 10 nM to about 500 nM.

Sequence of IDO1 (P14902 whole entry): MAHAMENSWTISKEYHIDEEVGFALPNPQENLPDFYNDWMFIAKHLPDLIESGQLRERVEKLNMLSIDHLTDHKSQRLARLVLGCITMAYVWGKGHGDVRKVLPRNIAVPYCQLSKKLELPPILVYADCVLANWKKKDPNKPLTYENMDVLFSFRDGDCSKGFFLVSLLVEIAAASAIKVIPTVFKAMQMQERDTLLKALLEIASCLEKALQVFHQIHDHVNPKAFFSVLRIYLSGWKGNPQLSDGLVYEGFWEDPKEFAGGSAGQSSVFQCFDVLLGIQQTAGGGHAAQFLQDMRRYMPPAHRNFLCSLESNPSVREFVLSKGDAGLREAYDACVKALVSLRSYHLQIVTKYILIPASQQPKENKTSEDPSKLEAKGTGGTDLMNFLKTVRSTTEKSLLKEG

Row | IC50 [nM] | SMILES
1 | 87.6 | COc1ccc(C2CCN(C(=O)Cn3nc(C(=O)N4C[C@@H](C)O[C@@H](C)C4)c4c3CCC4)CC2)c(C)c1C [Example 138, 2-{3-[(2R,6S)-2,6-dimethylmorpholine-4-carbonyl]-5,6-dihydrocyclopenta[c]pyrazol-1(4H)-yl}-1-[4-(4-methoxy-2,3-dimethylphenyl)piperidin-1-yl]ethan-1-one]
2 | 9.9 | Cc1cc(F)cc(C2CCN(C(=O)Cn3nc(C(=O)N4C[C@@H](C)O[C@@H](C)C4)c4c3CCC4)CC2)c1 [Example 90, 2-{3-[(2R,6S)-2,6-dimethylmorpholine-4-carbonyl]-5,6-dihydrocyclopenta[c]pyrazol-1(4H)-yl}-1-[4-(3-fluoro-5-methylphenyl)piperidin-1-yl]ethan-1-one]
3 | 206 | C[C@@H]1CN(C(=O)c2nn(CC(=O)N3CCC(c4cccc(CC(F)(F)F)c4)CC3)c3c2CCC3)C[C@H](C)O1 [Example 164, 2-{3-[(2R,6S)-2,6-dimethylmorpholine-4-carbonyl]-5,6-dihydrocyclopenta[c]pyrazol-1(4H)-yl}-1-{4-[3-(2,2,2-trifluoroethyl)phenyl]piperidin-1-yl}ethan-1-one]
4 | 18.9 | Cc1cc(C2CCN(C(=O)Cn3nc(C(=O)N4C[C@@H](C)O[C@@H](C)C4)c4c3CCC4)CC2)ccc1F [Example 94, 2-{3-[(2R,6S)-2,6-dimethylmorpholine-4-carbonyl]-5,6-dihydrocyclopenta[c]pyrazol-1(4H)-yl}-1-[4-(4-fluoro-3-methylphenyl)piperidin-1-yl]ethan-1-one]
5 | 173 | Cc1cc(C(F)(F)F)ccc1C1CCN(C(=O)Cn2nc(C(=O)N3C[C@@H](C)O[C@@H](C)C3)c3c2CCC3)CC1 [Example 162, 2-{3-[(2R,6S)-2,6-dimethylmorpholine-4-carbonyl]-5,6-dihydrocyclopenta[c]pyrazol-1(4H)-yl}-1-{4-[2-methyl-4-(trifluoromethyl)phenyl]piperidin-1-yl}ethan-1-one]
6 | 16 | Cc1cccc(C2CCN(C(=O)Cn3nc(C(=O)N4CCOCC4)c4c3CCC4)CC2)c1C [Example 46, 1-(4-(2,3-dimethylphenyl)piperidin-1-yl)-2-(3-(morpholine-4-carbonyl)-5,6-dihydrocyclopenta[c]pyrazol-1(4H)-yl)ethan-1-one]
7 | 45.8 | C[C@@H]1CN(C(=O)c2nn(CC(=O)N3CCC(c4ccc(Cl)cc4)CC3)c3c2CCC3)C[C@H](C)O1 [Example 114, 1-[4-(4-chlorophenyl)piperidin-1-yl]-2-{3-[(2R,6S)-2,6-dimethylmorpholine-4-carbonyl]-5,6-dihydrocyclopenta[c]pyrazol-1(4H)-yl}ethan-1-one]
8 | 1.2 | Cc1cccc(C2CCN(C(=O)Cn3nc(C(=O)N4CCC(O)CC4)c4c3CCCC4)CC2)c1C [Example 34, 1-(4-(2,3-dimethylphenyl)piperidin-1-yl)-2-(3-(4-hydroxypiperidine-1-carbonyl)-4,5,6,7-tetrahydro-1H-indazol-1-yl)ethanone]
9 | 156 | C[C@@H]1CN(C(=O)c2nn(CC(=O)N3CCC(c4cccc(C(C)(F)F)c4)CC3)c3c2CCC3)C[C@H](C)O1 [Example 159, 1-{4-[3-(1,1-difluoroethyl)phenyl]piperidin-1-yl}-2-{3-[(2R,6S)-2,6-dimethylmorpholine-4-carbonyl]-5,6-dihydrocyclopenta[c]pyrazol-1(4H)-yl}ethan-1-one]
10 | 126 | C[C@@H]1CN(C(=O)c2nn(CC(=O)N3CCC(c4c(F)ccc(F)c4F)CC3)c3c2CCC3)C[C@H](C)O1 [Example 152, 2-{3-[(2R,6S)-2,6-dimethylmorpholine-4-carbonyl]-5,6-dihydrocyclopenta[c]pyrazol-1(4H)-yl}-1-[4-(2,3,6-trifluorophenyl)piperidin-1-yl]ethan-1-one]
11 | 57.7 | C[C@@H]1CN(C(=O)c2nn(CC(=O)N3CCC(c4cccc(C5(C)CC5)c4)CC3)c3c2CCC3)C[C@H](C)O1 [Example 125, 2-{3-[(2R,6S)-2,6-dimethylmorpholine-4-carbonyl]-5,6-dihydrocyclopenta[c]pyrazol-1(4H)-yl}-1-{4-[3-(1-methylcyclopropyl)phenyl]piperidin-1-yl}ethan-1-one]
12 | 81.7 | C[C@@H]1CN(C(=O)c2nn(CC(=O)N3CCC(c4ccc(F)c(C(F)F)c4)CC3)c3c2CCC3)C[C@H](C)O1 [Example 133, 1-{4-[3-(difluoromethyl)-4-fluorophenyl]piperidin-1-yl}-2-{3-[(2R,6S)-2,6-dimethylmorpholine-4-carbonyl]-5,6-dihydrocyclopenta[c]pyrazol-1(4H)-yl}ethan-1-one]
13 | 1.2 | Cc1cccc(C2CCN(C(=O)Cn3nc(C(=O)N4CC[C@@H](O)[C@H](F)C4)c4c3C[C@H]3C[C@@H]43)CC2)c1C [Example 24, 1-[4-(2,3-dimethylphenyl)piperidin-1-yl]-2-{(3bR,4aR)-3-[(3R,4R)-3-fluoro-4-hydroxypiperidine-1-carbonyl]-3b,4,4a,5-tetrahydro-1H-cyclopropa[3,4]cyclopenta[1,2-c]pyrazol-1-yl}ethan-1-one]
14 | 122 | C[C@@H]1CN(C(=O)c2nn(CC(=O)N3CCC(c4cc(F)ccc4F)CC3)c3c2CCC3)C[C@H](C)O1 [Example 150, 1-[4-(2,5-difluorophenyl)piperidin-1-yl]-2-{3-[(2R,6S)-2,6-dimethylmorpholine-4-carbonyl]-5,6-dihydrocyclopenta[c]pyrazol-1(4H)-yl}ethan-1-one]
15 | 48.6 | Cc1cc(C2CCN(C(=O)Cn3nc(C(=O)N4C[C@@H](C)O[C@@H](C)C4)c4c3CCC4)CC2)cc(C)c1Cl [Example 116, 1-[4-(4-chloro-3,5-dimethylphenyl)piperidin-1-yl]-2-{3-[(2R,6S)-2,6-dimethylmorpholine-4-carbonyl]-5,6-dihydrocyclopenta[c]pyrazol-1(4H)-yl}ethan-1-one]
16 | 57 | C[C@@H]1CN(C(=O)c2nn(CC(=O)N3CCC(c4ccc(F)cc4Cl)CC3)c3c2CCC3)C[C@H](C)O1 [Example 124, 1-[4-(2-chloro-4-fluorophenyl)piperidin-1-yl]-2-{3-[(2R,6S)-2,6-dimethylmorpholine-4-carbonyl]-5,6-dihydrocyclopenta[c]pyrazol-1(4H)-yl}ethan-1-one]
17 | 79.4 | C[C@@H]1CN(C(=O)c2nn(CC(=O)N3CCC(c4ccccc4)CC3)c3c2CCC3)C[C@H](C)O1 [Example 70, 2-{3-[(2R,6S)-2,6-dimethylmorpholine-4-carbonyl]-5,6-dihydrocyclopenta[c]pyrazol-1(4H)-yl}-1-(4-phenylpiperidin-1-yl)ethan-1-one]
18 | 177 | C[C@@H]1CN(C(=O)c2nn(CC(=O)N3CCC(c4ccccc4OC(F)(F)F)CC3)c3c2CCC3)C[C@H](C)O1 [Example 163, 2-{3-[(2R,6S)-2,6-dimethylmorpholine-4-carbonyl]-5,6-dihydrocyclopenta[c]pyrazol-1(4H)-yl}-1-{4-[2-(trifluoromethoxy)phenyl]piperidin-1-yl}ethan-1-one]
19 | 114 | Cc1cc(F)ccc1C1CCN(C(=O)Cn2nc(C(=O)N3CCC(O)(CF)CC3)c3c2CCC3)CC1 [Example 53, 1-(4-(4-fluoro-2-methylphenyl)piperidin-1-yl)-2-(3-(4-(fluoromethyl)-4-hydroxypiperidine-1-carbonyl)-5,6-dihydrocyclopenta[c]pyrazol-1 (4H)-yl)ethanone]
20 | 25 | O=C(Cn1nc(C(=O)N2CCC(O)CC2)c2c1CCC2)N1CCC(c2cccc3c2CC3)CC1 [Example 16, 1-(4-(bicyclo[4.2.0]octa-1(6),2,4-trien-2-yl)piperidin-1-yl)-2-(3-(4-hydroxypiperidine-1-carbonyl)-5,6-dihydrocyclopenta[c]pyrazol-1(4H)-yl)ethanone]
21 | 24.1 | C[C@@H]1CN(C(=O)c2nn(CC(=O)N3CCC(c4cccc(F)c4Cl)CC3)c3c2CCC3)C[C@H](C)O1 [Example 97, 1-[4-(2-chloro-3-fluorophenyl)piperidin-1-yl]-2-{3-[(2R,6S)-2,6-dimethylmorpholine-4-carbonyl]-5,6-dihydrocyclopenta[c]pyrazol-1(4H)-yl}ethan-1-one]
22 | 199 | Cc1cc(F)ccc1C1CCN(C(=O)Cn2nc(C(=O)N3CC[C@H](O)[C@H](F)C3)c3c2CCC3)CC1 [Example 56, 1-(4-(4-fluoro-2-methylphenyl)piperidin-1-yl)-2-(3-((3R,4S)-3-fluoro-4-hydroxypiperidine-1-carbonyl)-5,6-dihydrocyclopenta[c]pyrazol-1(4H)-yl)ethanone]
